From publication PMC4821601, “The Interactions of P-Glycoprotein with Antimalarial Drugs, Including Substrate Affinity, Inhibition and Regulation” (PLoS ONE, 2016)

Legend:
[1] = test system: P-gp; settings: 20 μM, 96 hours, Caco-2, western blot vs control
Description: Caco-2 cells were seeded in 6 well plates at 10,000 cells/cm^2 for 21 days. Drugs and drug combinations at 20 μM prepared in cell growth medium were added on to the mature cells and exposed for 96 hours. After drug exposure, cells were washed three times using PBS and cell lysate was prepared in lysis buffer. The protein content was quantified using the 96 well micro-Lowry protein assay and regulation of P-gp was determined using western blotting.
The membrane was blocked using 2% casein in TBS and washed with TBST. The primary antibody; Mdr (G-1) mouse monoclonal IgG2b 200 and mouse anti-β actin were used as the antibody for β-actin, the reference protein. The antibody; HRP linked goat anti mouse IgG was used as the secondary antibody. The washed membrane was incubated in a BioRad clarity chemiluminescent substrate and enhancer was read and semi quantified using the BIORAD Chemidoc MPT imager with Image LabTM software.

[2] = molecular target: T1, P-glycoprotein (P-gp) (Homo sapiens, UniProt P08183); test: Bidirectional transport of rhodamine123 through Caco-2 monolayers co-incubated with antimalarials (P-gp inhibitory properties); assay type: in vitro ADME; settings: at 100 μM
T1 construct: In-vitro Caco-2 cell monolayers were used here as a model for potential drug absorption related problems and P-gp mediated transport of drugs; endogenous in cells; host or cells: Caco-2 (human colon carcinoma, ATCC)
Description: The Caco-2 cells were seeded on 0.6 cm^2 […] Millipore PCF™ filter inserts at the cell density of 65,000 cells/cm^2 as done previously in the lab. Briefly, the cells were grown for 21–24 days to allow full maturation and formation of tight monolayers. The initial experiments were conducted in mid-40s passage cells and repeated in early 80s passage Caco-2 cells. The Trans epithelial electrical resistance (TEER) was measured immediately before and after the experiment using an epithelial voltage/ohm meter and an ENDOHM 12 chamber (World precision instruments, Sarasota, FL). TEER values were measured both before and after the study with readings above 300 Ω.cm^2 considered as acceptable for tight junctions. […] In order to maintain equivalent transport medium (HBSS/HBSS with inhibitor) level both outside and inside the chambers, 300 μL was used as medium in the apical chambers and 600 μL in the basolateral chambers. […] Drugs were co-incubated with MRCP, BCRP and ATP hydrolysis blockers to determine the involvement of other efflux mechanisms. Prior to the experiment, the transport medium, HBSS or HBSS with P-gp inhibitors were pre-incubated with the cells for 30 minutes. Following incubation, inserts were placed in new well plates and donor chamber is replaced with drug or drug with inhibitor and the receiver chamber with blank HBSS or HBSS with inhibitor. Transport medium was collected from the receiver chamber after stirring at time intervals of 30, 60, 90 and 120 minutes and was replaced with the same volume of fresh HBSS, or HBSS with inhibitor, when P-gp inhibitors were used in the study. At the end of the experiment 100 μL of medium was removed from the donor chamber in addition to medium collected from the receiver chamber during the study. The cells were then washed thoroughly in cold (4°C) PBS and cell membranes attached to the inserts were sonicated for 10 minutes in a sonicating water bath and centrifuged at 10,000 g for 10 minutes. Supernatant was frozen at -80°C until assayed. The Papp values of three well plates were determined using methods modified from Artursson’s group as described by Crowe and Lemaire.
CL.vol=Aa/{[Cd0×Vd−[Aa+(Ca×Vs)]−(Ac)×n/nfin]/Vd}
CL.vol = clearance volume (mL), n = time (min), Aa = amount in acceptor compartment at time n (pmols), Cd0 = concentration in donor compartment at time zero (nM), Vd = volume of the donor compartment (mL), Ca = concentration in acceptor compartment at the previous time point (nM), Vs = sample volume of previous time point (mL), Ac = amount of compound associated with the cells (pmol), Nfin = final time point (min). Papp = Apparent permeability (cm/sec) Rate of clearance (mL/min)=CL.vol / n Papp (cm/sec)=Rate of clearance / Surface area (cm^2)
The cleared volume was plotted against time and the slope of the regression line was divided by the surface area to obtain the Papp values. […] Mean Papp for Bas-Ap direction was divided by the Ap-Bas direction to obtain the efflux ratio and values above two were considered as drugs having true efflux transport.

T1 sequence (P08183 whole entry): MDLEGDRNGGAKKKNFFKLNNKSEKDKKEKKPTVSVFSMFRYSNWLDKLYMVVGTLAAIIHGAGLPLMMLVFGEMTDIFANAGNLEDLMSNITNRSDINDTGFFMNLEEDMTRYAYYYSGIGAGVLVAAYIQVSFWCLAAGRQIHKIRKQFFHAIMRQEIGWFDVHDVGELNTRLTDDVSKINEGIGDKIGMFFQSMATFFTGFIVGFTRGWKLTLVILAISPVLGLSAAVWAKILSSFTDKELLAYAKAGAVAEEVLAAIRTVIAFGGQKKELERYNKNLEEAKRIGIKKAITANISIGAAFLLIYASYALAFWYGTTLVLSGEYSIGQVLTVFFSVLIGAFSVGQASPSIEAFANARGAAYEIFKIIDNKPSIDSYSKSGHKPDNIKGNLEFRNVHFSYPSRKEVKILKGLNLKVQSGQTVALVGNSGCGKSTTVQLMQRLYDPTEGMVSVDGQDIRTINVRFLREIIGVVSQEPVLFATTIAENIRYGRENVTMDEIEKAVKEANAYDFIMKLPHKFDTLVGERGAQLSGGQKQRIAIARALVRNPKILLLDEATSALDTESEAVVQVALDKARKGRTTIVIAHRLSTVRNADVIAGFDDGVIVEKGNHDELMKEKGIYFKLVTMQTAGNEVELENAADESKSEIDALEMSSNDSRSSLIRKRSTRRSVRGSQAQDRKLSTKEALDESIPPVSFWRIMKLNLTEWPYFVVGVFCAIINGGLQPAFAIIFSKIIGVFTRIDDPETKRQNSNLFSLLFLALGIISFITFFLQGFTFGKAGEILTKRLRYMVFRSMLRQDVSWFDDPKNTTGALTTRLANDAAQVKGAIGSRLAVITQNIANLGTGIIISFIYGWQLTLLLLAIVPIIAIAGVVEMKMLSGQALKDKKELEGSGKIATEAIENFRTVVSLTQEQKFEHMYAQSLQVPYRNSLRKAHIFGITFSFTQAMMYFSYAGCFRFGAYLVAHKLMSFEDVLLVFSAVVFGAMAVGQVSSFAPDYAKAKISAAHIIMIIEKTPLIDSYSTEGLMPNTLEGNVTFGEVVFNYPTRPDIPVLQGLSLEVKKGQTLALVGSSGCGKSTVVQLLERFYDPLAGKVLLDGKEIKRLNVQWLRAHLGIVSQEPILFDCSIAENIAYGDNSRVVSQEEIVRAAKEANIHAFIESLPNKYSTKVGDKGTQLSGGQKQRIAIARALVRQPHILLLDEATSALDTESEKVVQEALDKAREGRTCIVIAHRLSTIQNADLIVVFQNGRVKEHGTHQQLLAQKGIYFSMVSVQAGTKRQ

In the case of `OC(c1cc(C(F)(F)F)nc2c(C(F)(F)F)cccc12)C1CCCCN1` (stereo not drawn) [MQ, mefloquine], the “regulation of P-gp expression” value [1] is reported as “not observed”, the P-gp inhibitory properties [2] is reported as “P-gp inhibitory properties” and the inhibition at 120 min, 100 µM ([2]; human, Caco-2 cell monolayers, probe rhodamine 123, read-out: inhibition of efflux driven transport) is reported as ~50%.
